Results published in patent US20070197591A1, “USE OF PALIPERIDONE FOR THE TREATMENT OF A MENTAL DISORDER IN A PSYCHIATRIC PATIENT WITH REDUCED HEPATIC FUNCTION” (priority 2005, published 2007).

Assays:
[1] = Plasma protein binding / unbound fraction of paliperidone and its enantiomers; type: in vitro ADME, human
From the text: Objectives: The primary objective of this study was to investigate the single-dose pharmacokinetics of immediate-release (IR) paliperidone, after oral administration, in subjects having moderate hepatic impairment (“hepatically-impaired subjects”) compared with subjects having normal hepatic function (“healthy subjects”). The secondary objective was to document the plasma protein binding and disposition of the enantiomers of paliperidone. In addition, the tolerability and safety profile of IR paliperidone was compared between hepatically impaired subjects and healthy subjects. Criteria for Evaluation: Pharmacokinetics: Plasma and urine concentrations of the paliperidone enantiomers (+) R078543 and (−) R078544 were determined using an LC-MS/MS method. Concentrations of paliperidone were calculated as the sum of the enantiomer concentrations. In addition, serum and urine concentrations of creatinine were determined for the calculation of CLCR. The protein binding and unbound fraction was determined for the 2 paliperidone enantiomers. The unbound fraction for paliperidone was calculated.

[2] = Safety and tolerability, single oral 1-mg ^14C-paliperidone in healthy men; type: in vivo, human
Method: Safety: Evaluation was based on the incidence, type, and severity of all treatment-emergent adverse events, and on change from screening to the end of the study in clinical laboratory results, vital sign measurements, and postural changes in blood pressure and heart rate.
Safety: The number of subjects with adverse events was summarized. Summary statistics were calculated for clinical laboratory values. Other safety data were listed by individual sect. Changes in blood pressure and heart rate measurements were also presented graphically.

clinical = assay: clinical; set-up: species or system human; settings: human, in vivo
From the text: Objectives: to investigate the metabolic pathways of paliperidone and excretion of paliperidone and its metabolites in healthy adult male subjects, both CYP2D6 poor and extensive metabolizers, after administration of a single 1-mg oral dose of ^14C-paliperidone. In addition, to evaluate the safety and tolerability of paliperidone, as well as the relationship between genotypes (CYP2D6, CYP3A4, CYP3A5, UGT1A1, and UGT1A6) and exposure to paliperidone and its metabolites.
Methodology: Single-center, single-dose open-label study of the absorption, metabolism, and excretion (AME) of paliperidone in healthy men (3 extensive and 3 poor metabolizers based on CPY2D6 phenotype). […] Each subject received a single oral dose of ^14C-paliperidone with total radioactivity below […] (16 μCi). Blood samples for plasma pharmacokinetic profile were obtained immediately before study drug administration and 0.5, 1, 1.5, 3, 6, 12, 16, 36, 48, 72, 96, 120, 144 and 168 hours postdose. Blood samples were obtained 2, 4, 8, and 24 hours postdose for determination of ^14C in whole blood. Samples for determination of serum creatinine were obtained 2, 4, 8, and 24 hours postdose. Urine was collected immediately prior to drug administration and from 0-4, 4-8, 8-12, 12-16, 16-24, 24-36, 36-48, 48-72, 96-120, 120-144, and 144-168 hours after study drug administration. Fecal samples were colleted per each stool, once before study drug administration and in the period from 0-168 hours after study drug administration. Collections of urine and feces (per 24 hours) were to continue beyond 168 hours, to a maximum of 336 hours (Day 15) for subjects who excrete radioactivity slowly (2 latest 24-hour urine collections each >2% of total radioactive dose) or have <7 feces stool samples over the 0 to 168-hour period. ^14C radioactivity was measured in plasma, urine, and feces. Aliquots of the 0- through 24-hour urine collections were analyzed for cretinine. Plasma concentrations of paliperidone and risperidone were determined by means of a validated LC-MS/MS method. The ^14C-labeled moiety in plasma and urine was determined by liquid scintillation counting. For all plasma samples, the lower limits of quantification for paliperidone and risperidone were 0.100 ng/mL. For all plasma and urine samples the lower limits of quantification for ^14C-palieridone was 72 dpm/mL (=2.0 n g-eq/mL).
Number of Subjects (Planned and Analyzed): Six healthy men, 3 extensive and 3 poor metabolizers based on CYP2D6 phenotype were to participate in the study. Five subjects, 3 extensive and 2 poor metabolizers, received a single dose of ^14C-paliperidone, completed the study (i.e., completed all assessments through Day 8) and were considered valuable for safety (the Safety Analysis Set), as well as for pharmacokinetics.
Test Product, Dose and Mode of Administration Batch No.: Single oral 0.988-mg dose of ^14C-paliperidone, oral solution (aqueous formulation at a final concentration of 0.0984 mg/mL). Batch No.: unlabeled paliperidone oral solution: ZR076477EIA031 (manufacturing date: 23 Apr. 2003, retest date: 23 Oct. 2004): ^14C-paliperidone: 1763 (expiration date: not applicable)
Criteria for Evaluation: Pharmacokinetics: Plasma paliperidone. ^14C radioactivity and metabolite profiles were determined. Plasma Cmax, tmax, AUClast, AUC24, AUC∞, λZ, t1/2term, CL/F of ^14C and paliperidone were estimated by non-compartmental analysis. Based on the individual urine excretion data and on the serum creatinine concentrations, Ae, Ae, % dose, CLR, CLR,24h and CLer and paliperidone and CLGFR, and CLact of paliperidone were estimated. The excretion half-life of ^14C in urine was also estimated based on excretion rate-time profiles.
Statistical Methods: Pharmacokinetics: Plasma concentrations of ^14C and paliperdone as well as estimates for pharmacokinetic parameters were listed and graphically presented, and the excretion analysis of total radioactivity in plasma, urine and feces were summarized. […]

[3] = Hepatically-Impaired Subjects (n = 10; paliperidone n = 8)

Unbound Fraction ([1]; Healthy Subjects (n = 10)) | Unbound Fraction [1, 3] | Compound | deaths, serious adverse events ([2]; 5 healthy men, single oral 1-mg dose) | changes in laboratory test results ([2]; in vivo, po) | overall safety and tolerability ([2]; in vivo, po) | subjects with treatment-emergent adverse events ([2]; in vivo, po) | AUC∞ (clinical) [ng-eq.h/mL]
0.385 ± 0.0416 | 0.457 ± 0.0504 | Cc1nc2n(c(=O)c1CCN1CCC(c3noc4cc(F)ccc34)CC1)CCCC2O (single isomer, unassigned; (-)) [(−) R078544] | – | – | – | – | –
0.215 ± 0.0469 | 0.306 ± 0.0687 | Cc1nc2n(c(=O)c1CCN1CCC(c3noc4cc(F)ccc34)CC1)CCC[C@H]2O [(+) R078543] | – | – | – | – | –
– | – | ^14C-paliperidone | no deaths, no serious adverse events | no clinically relevant changes | safe and well tolerated | Two of the 5 subjects | 175
